Data on two molecules can be found in patent US7557573B2, “NMR-based methods for detecting ligands, where the ligand or target are hyperpolarized and the NMR-spectrum is compared with a reference spectrum of the ligand or target” (GE Healthcare AS, priority 2002, dated 2009).

The subject of one assay is Urease. The experiment in a line: Hyperpolarised 13C-urea NMR assay of enzymatic conversion and its inhibition. Conditions: 10, 12 and 14 units urease, substrate concentration constant.
Assay [1] relates to Src homology domain 2 from growth binding hormone. The experiment in a line: Hyperpolarised (DNP) 13C-NMR binding assay, ligand free vs bound signals. Conditions: target to ligand ratio 4:1, ligand 24 μM, 25° C., single scan. On the procedure:
The sample was placed in the polariser and hyperpolarised overnight (17 h) at 93.934 GHz and 100 mW (DNP method). The sample was brought into solution with phosphate buffer (pH 6.5, 100 mM, 60° C., 8.5 ml). The active dissolution volume was 3 ml with 90% recovery of substance, providing a final concentration of 5.7 μM. […] A liquid state NMR spectrum was acquired in one scan with a 90° pulse angle and acquisition time of 1 s. One NMR signal was obtained at 176.9 ppm from the ^13C-labeled ligand. The signal-to-noise ratio (SNR) of the spectrum was 50.
940 μl of the target solution (100 μM target, 5 mM DTT, 100 mM NaCl, 50 mM phosphate pH 6.5) was placed in 10 mm NMR tube with a bottom plug, reducing the active volume to […]. The tube was placed in a 9.4 T magnet with the temperature of the probe equilibrated to 25° C. A tube was connected to the bottom of the NMR tube to allow for injection of the ligand solution into the target solution.
The sample was placed in the polariser and hyperpolarised overnight (17 h) at 93.934 GHz and 100 mW (DNP method). […]
In this example, the target to ligand concentration ratio was 4:1. […] By varying the ligand to target concentration in the assay it would thus be possible to measure the binding affinity by quantifying the relative amounts of free and bound ligand visible in the spectra based on the knowledge of ligand/target concentrations used in the assay.

For assay [2] the test system is unchanged. Conditions: cited from earlier work.

Procedure for Urease: The frozen sample was hyperpolarised for one hour (DNP method). The sample was dissolved in a phosphate buffer (10 mM, pH 7.6, 100° C., 8.5 ml (active dissolution volume 3 ml)) and 500 μl were transferred to a 10 mm NMR tube containing 2.5 ml of a solution (same buffer as for urea) containing 12 units urease (0.1 mg). A series of 40 one-dimensional ^13C spectra were collected as one every 3 s, with a reduced flip angle (15°).
It is possible to calibrate the flip angle, and the relaxation rate for urea is known. […] Another way of calculating the reaction rate for the system is to vary the enzyme concentration while keeping the concentration of substrate constant.
The latter approach was used in a series of experiments that were performed as described above, only the concentration of urease was varied. Three experiments were performed with 10 units, 12 units and 14 units urease. The urease activity was plotted as a function of concentration. From this plot, the reaction rate constant was extracted directly. The NMR signal intensities of urea in the individual experiments have been used to calculate the enzymatic activity.

Take `NC(N)=O` [urea]: in the assay with Urease, the “rate constant for the system (enzymatic conversion of urea)” value came to 0.0019 s⁻¹.
Take (1-^13C)—Ac—EpYINQ—NH2: in assay [1], the “NMR signals of hyperpolarised ligand in mixture with target (free/bound)” value is “two signals, one from the unbound ligand (176.94 ppm) and one from the bound ligand (176.2 ppm)”. For the same molecule, the “exchange regime of ligand with the target” value in assay [2] is given as “slow exchange with the target”.
